A word on the IC50: it is the concentration that inhibits the measured activity by half.

These results are taken from patent publication US5684151A, “1-arylsulphonyl, arylcarbonyl and 1-arylphosphonyl-3-phenyl-1,4,5,6-tetrahydropyridazines” (priority 1995, dated 1997).

Read-outs that look alike come from different tables or passages of the source.

The test system of assay [1] is Human T47D breast carcinoma cells. Put plainly: Ex vivo progestational test (T47D proliferation). The settings on record: SC200, 3H-thymidine incorporation. The assay is classed as cell-based. The method, then: The progestational activity of the compounds was accessed by their ability to stimulate proliferation of human breast carcinoma cells. Proliferation was measured as the ability to stimulate ^3 H-thymidine incorporation into these cells in vitro. Human T47D breast carcinoma cells (American Type Tissue Collection #133-HTB) were maintained in media consisting or RPMI 1640 supplemented with 10% fetal bovine serum, 10 ug/ml insulin, 10 U/ml pennicillin, 100 ug/ml streptomycin, and 2 mM L-glutamine. Monolayer cell cultures were trypsinized and washed in assay media consisting of phenol red-free RPMI 1640 supplemented with 5% charcoal-stripped, fetal bovine serum, and the other ingredients listed above. Cells were then plated in a 96-well plate. After a 48-hour incubation period at 37° C., the conditioned media was removed and replaced with fresh media containing test compounds in DMSO (0.1% DMSO final concentration). The cell cultures were incubated for 18 to 20 hours at 37° C. ^3 H-thymidine was then added to each well and the cell cultures were incubated at 37° C. for an additional 4 hours. Labelling was stopped by addition of un labelled thymidine. The cultures were washed twice, trypsinized and then harvested onto a filter mat. Incorporated ^3 -H-thymidine was measured by liquid scintillation counting. Data was expressed as a percent stimulation above control level which was set at 100%. An SC200 value was calculated as the concentration of test material needed to stimulate ^3 H-thymidine incorporation 200% of control.
Aspects of the application of the procedure used are described in the following: C. Christensen, D. Gunter, D. Saunders and V. Malviya, Gynecol. Oncol., 28, 25 (1987); J. Puzas, R. Drivdahl, G. Howard and D. Baylink, Proc. Soc. Exp. Biol. Med., 166, 113 (1981); and I. Keydar, L. Chen, S. Karby, F. Weiss, J. Delarea, M. Raduy, S. Chaitcik and H. Brenner, Eur. J. Cancer, 15, 659 (1979)
(In general: Incorporation of labelled thymidine or its analogues reports DNA synthesis.)

Assay [2] relates to rabbit endometrium. Put plainly: In vivo progestational test (McGinty Test). The settings on record: injection into uterine horn, 72 hours. Details: species or system rabbit (immature New Zealand White female); key: Active in Clauberg Assay; Active in McGinty Assay. The method, then:
Progestational activity was measured in vivo by the ability to stimulate the rabbit endometrium after injection into the uterine horn.
Immature New Zealand White female rabbits were injected subcutaneously for 6 days with 5.0 μg of 17β-estradiol per day. On the 7th day the rabbits were anesthetized, the abdomen opened and a uterine horn exposed. Two ligatures were placed around a segment of the uterus 3-4 cm long, leaving the major blood vessels outside the ties.
The upper ligature was tied tightly, and the lower one was left loose. A needle attached to a syringe was injected in the uterus below the second ligature and up into the area between the two ligatures. As the test material was injected, the ligature was tightened and held tight so that the needle was withdrawn without the loss of fluid. The second ligature was secured and the abdomen closed.
The rabbits were sacrificed approximately 72 hours after the injection. The uteri were removed, fixed in 10% buffered formalin, sectioned at 6μ, and stained with hematoxylin and eosin. The evaluation for endometrial proliferation was made according to a McPhail Index. Each slide was graded for each rabbit on a 0 (no response)-4 (maximum response) scale.

The target of assay [3] is T1, progestin receptor from rabbit uterus (Oryctolagus cuniculus, UniProt P06186).
T1 construct: Cytosolic progestin receptor were obtained by mixing rabbit uterine tissue with a Tris buffer; from tissue; host or cells: rabbit uterus cytosol
T1 sequence (P06186 whole entry): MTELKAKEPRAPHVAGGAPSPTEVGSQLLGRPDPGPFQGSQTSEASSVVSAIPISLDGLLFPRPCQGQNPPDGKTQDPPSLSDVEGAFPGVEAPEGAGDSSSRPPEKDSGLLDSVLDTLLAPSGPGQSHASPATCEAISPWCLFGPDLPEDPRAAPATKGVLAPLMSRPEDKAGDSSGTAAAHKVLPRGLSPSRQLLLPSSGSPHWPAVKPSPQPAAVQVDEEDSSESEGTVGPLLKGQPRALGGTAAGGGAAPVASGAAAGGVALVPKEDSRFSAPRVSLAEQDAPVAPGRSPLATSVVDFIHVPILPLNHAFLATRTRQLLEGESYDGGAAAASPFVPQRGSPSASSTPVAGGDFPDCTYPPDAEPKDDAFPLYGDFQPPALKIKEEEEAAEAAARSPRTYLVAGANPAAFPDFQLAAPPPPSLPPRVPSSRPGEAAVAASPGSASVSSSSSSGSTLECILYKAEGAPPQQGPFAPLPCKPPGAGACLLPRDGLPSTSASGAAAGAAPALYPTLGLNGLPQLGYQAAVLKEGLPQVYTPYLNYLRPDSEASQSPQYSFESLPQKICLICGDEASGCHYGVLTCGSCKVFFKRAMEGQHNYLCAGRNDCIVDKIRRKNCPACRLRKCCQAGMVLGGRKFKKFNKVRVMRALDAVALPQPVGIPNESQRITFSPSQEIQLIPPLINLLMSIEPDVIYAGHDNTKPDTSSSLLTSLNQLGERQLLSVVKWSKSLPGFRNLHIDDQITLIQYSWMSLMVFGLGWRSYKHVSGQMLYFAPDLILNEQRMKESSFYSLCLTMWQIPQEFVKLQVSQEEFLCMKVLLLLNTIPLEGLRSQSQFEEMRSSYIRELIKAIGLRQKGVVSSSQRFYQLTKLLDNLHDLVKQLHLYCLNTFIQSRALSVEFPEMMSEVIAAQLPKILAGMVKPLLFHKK
Briefly: Progestin receptor binding (3H-R5020 displacement). As to conditions: rabbit uterine cytosol, 4° C., 18 h, read-out: IC50: Binding affinity for the progestin receptor from rabbit uterus. The method, boiled down: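 Rabbit uterine cytosol in Tris buffer pH 7.4 with EDTA, DTT and molybdate was incubated with 3H-R5020 and test compound (5% DMSO final) at 4 °C for about 18 h. Bound ligand was separated with dextran-coated charcoal and counted by scintillation; IC50 is 50% radioligand displacement, with nonspecific binding defined by excess unlabelled ligand.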

Assay [4] relates to rabbit endometrium. Put plainly: In vivo progestational test (Clauberg Test). As to conditions: oral or parenteral, daily for five days. Details: species or system rabbit (immature New Zealand White female); key: Active in Clauberg Assay; Active in McGinty Assay. The protocol: Progestational activity was also measured in vivo by the abiity to stimulate the rabbit endometrium after either oral or parenteral administration.
[…]. Starting on the 7th day, the rabbits were given the test material daily for five days. The rabbits were sacrificed approximately 24 hours after the last administration, and the uteri were excised, trimmed and weighed. Portions of both uterine horns were fixed in 10% neutral formalin, sectioned at 6μ and stained with hematoxylin and eosin. Progestational activity was assessed as described above for the McGinty Test.

Assay [5] deals with mouse (MC3T3-E1) and human (TE-85) osteoblast-line cells. The format is cell-based. The method, boiled down: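 MC3T3-E1 or TE-85 cells were plated overnight in DMEM/25 mM HEPES/10% FBS and then preincubated 24 h in 0.1% FBS. Compounds were added for 20 h, followed by a 4 h pulse of 0.4 μCi ^3H-thymidine. Incorporated radioactivity served as the proliferation index, expressed as % of control (control = 100%).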

For the compound `O=S(=O)(c1cc(Cl)cc(Cl)c1)N1CCCC(c2ccc(Cl)c(C(F)(F)F)c2)=N1` [Compound 80], the “T47D: Concentration to elicit a 200% increase in T47D Human breast cell proliferation” value in assay [1] turned out to be 85. Also, the “In-vivo: Active in McGinty Assay” value with rabbit endometrium [2] is “M”. The IC50 in assay [3] was determined as 0.79 nM.
Consider `CC1CCC(c2ccc(Cl)c(Cl)c2)=NN1S(=O)(=O)c1ccc(I)cc1` (stereo not shown) [Compound 282, 1-(4Iodobenzenesulfonyl)-3-(3,4-dichlorophenyl)-6-methyl 1,4,5,6-tetrahydropyridazine], for which the “In-vivo: Active in Clauberg Assay” value in the assay on rabbit endometrium [4] was “C”. The “T47D: Concentration to elicit a 200% increase in T47D Human breast cell proliferation” value in assay [1] came out at 10.5. In addition, the IC50 in assay [3] stood at 0.2 nM.
With `O=S(=O)(c1cccc(C(F)(F)F)c1)N1CCCC(c2ccc(Cl)cc2)=N1` [Compound 35], the “In-vivo: Active in McGinty Assay” value in the assay with rabbit endometrium [2] is given as “M”. For the same compound, the “Osteoblast Cell Proliferation, 3H-thymidine incorporation vs control (100%)” value (shortened to “Osteoblast Cell Proliferation … (100%)”) in assay [5] (10^-6) stood at 82%; in assay [5] (10^-7) it was 101%; in assay [5] (10^-8), 123%; in assay [5] (10^-9) it was 150%; in assay [5] (10^-10) it was 154%. For the same compound, the IC50 in assay [3] turned out to be 3.01 nM.
In the case of `O=S(=O)(c1ccc(C(F)(F)F)cc1)N1CCCC(c2ccc(Cl)c(Cl)c2)=N1` [Compound 97, 3-(3,4-dichlorophenyl)-1-(4-trifluoromethylbenzenesulphonyl)-1,4,5,6-tetrahydropyridazine], the “In-vivo: Active in Clauberg Assay” value in the assay on rabbit endometrium [4] is listed as “C”. In addition, in assay [1], the “T47D: Concentration to elicit a 200% increase in T47D Human breast cell proliferation” value is recorded as 92. In assay [3], the IC50 turned out to be 0.99 nM.
`Cc1ccc(S(=O)(=O)N2CCCC(c3ccc(Cl)c(C(F)(F)F)c3)=N2)cc1` [Compound 82]: in assay [1], the “T47D: Concentration to elicit a 200% increase in T47D Human breast cell proliferation” value amounted to 608. The “In-vivo: Active in McGinty Assay” value in the assay on rabbit endometrium [2] is reported as “M”. Moreover, in assay [3], the half-maximal inhibitory concentration (IC50) was 2.95 nM.
As for `Cc1ccc(S(=O)(=O)N2CCCC(c3ccc(Cl)c(Cl)c3)=N2)cc1` [Compound 41, 3-(3,4-dichlorophenyl)-1-(4-methylbenzenesulphonyl)-1,4,5,6-tetrahydropyridazine], the “T47D: Concentration to elicit a 200% increase in T47D Human breast cell proliferation” value in assay [1] turned out to be 4000. Also, the “In-vivo: Active in McGinty Assay” value in the assay with rabbit endometrium [2] is recorded as “M”. The “Osteoblast Cell Proliferation … (100%)” value in assay [5] (10^-6) amounted to 138%; in assay [5] (10^-7), 158%; in assay [5] (10^-8), 166%; in assay [5] (10^-9), 144%; in assay [5] (10^-10), 116%. Besides, the IC50 in assay [3] came to 1.96 nM.
For the compound `O=S(=O)(c1ccc(Br)cc1)N1CCCC(c2ccc(Cl)c(C(F)(F)F)c2)=N1` [Compound 115, 3-(4-chloro-3-trifluoromethylphenyl)-1-(4-bromobenzenesulphonyl)-1,4,5,6-tetrahydropyridazine], in the assay with rabbit endometrium [4], the “In-vivo: Active in Clauberg Assay” value is recorded as “C”. Moreover, in assay [1], the “T47D: Concentration to elicit a 200% increase in T47D Human breast cell proliferation” value is given as 72. Also, in assay [3], the IC50 amounted to 2.09 nM.
On the same counts, the results for `O=S(=O)(c1ccc(C(F)(F)F)cc1)N1CCCC(c2ccc(Cl)c(C(F)(F)F)c2)=N1` [Compound 125, 3-(4-chloro-3-trifluoromethylphenyl)-1-(4-trifluoromethylbenzenesulphonyl)-1,4,5,6-tetrahydropyridazine] are “C”, 166 and 6.66 nM.
As to `O=C(c1cc(Cl)cc(Cl)c1)N1CCCC(c2ccc(Cl)c(Cl)c2)=N1` [Compound 219], the “T47D: Concentration to elicit a 200% increase in T47D Human breast cell proliferation” value in assay [1] is reported as 10000. Also, the “Osteoblast Cell Proliferation … (100%)” value is recorded as 144% in assay [5] (10^-6); 171% in assay [5] (10^-7); 141% in assay [5] (10^-8); 180% in assay [5] (10^-9); 178% in assay [5] (10^-10). The 50% inhibitory concentration (IC50) in assay [3] amounted to 946 nM.
In the case of `O=S(=O)(c1cc(Cl)ccc1Cl)N1CCCC(c2ccc(Cl)c(Cl)c2)=N1` [Compound 22, 3-(3,4-dichlorophenyl)-1-(2,5-dichlorobenzenesulphonyl)-1,4,5,6-tetrahydropyridazine], the “T47D: Concentration to elicit a 200% increase in T47D Human breast cell proliferation” value in assay [1] is on record as 10000. The “Osteoblast Cell Proliferation … (100%)” value was determined as 86% in assay [5] (10^-6); 78% in assay [5] (10^-7); 66% in assay [5] (10^-8); 59% in assay [5] (10^-9); 40% in assay [5] (10^-10). Moreover, the 50% inhibitory concentration (IC50) in assay [3] came to 0.54 nM.
As for `O=S(=O)(c1ccc(I)cc1)N1CCCC(c2cc(Br)c(Br)s2)=N1` [Compound 278, 3-(4,5-Dibromo-2-thienyl)-1-(4-iodobenzenesulfonyl)-1,4,5,6-tetrahydropyridazine], in the assay on rabbit endometrium [4], the “In-vivo: Active in Clauberg Assay” value is listed as “C”. Besides, the “T47D: Concentration to elicit a 200% increase in T47D Human breast cell proliferation” value in assay [1] stood at 85. Further, the concentration for half-maximal inhibition (IC50) in assay [3] came to 1 nM.
The matching figures for `CC1CCC(c2ccc(Cl)c(C(F)(F)F)c2)=NN1S(=O)(=O)c1ccc(I)cc1` (stereo not shown) [Compound 281, 1-(4-Iodobenzenesulfonyl)-3-(3-trifluoromethyl-4-chlorophenyl)-6-methyl-1,4,5,6-tetrahydropyridazine]: “C”, 10 and 0.02 nM.
`O=S(=O)(/C=C/c1ccc(Cl)cc1)N1CCCC(c2ccc(Cl)c(Cl)c2)=N1` [Compound 170]: the “T47D: Concentration to elicit a 200% increase in T47D Human breast cell proliferation” value in assay [1] is given as 4000. Also, the “Osteoblast Cell Proliferation … (100%)” value in assay [5] (10^-6) is on record as 68%; in assay [5] (10^-7), 98%; in assay [5] (10^-8), 108%; in assay [5] (10^-9) it was 108%; in assay [5] (10^-10), 108%. The IC50 in assay [3] was determined as 2.15 nM.
On to `CCCCc1ccc(C2=NN(S(=O)(=O)c3ccc(Cl)cc3)CCC2)cc1` [Compound 73], for which the “T47D: Concentration to elicit a 200% increase in T47D Human breast cell proliferation” value in assay [1] is reported as 10000. The 50% inhibitory concentration (IC50) in assay [3] worked out at 10000 nM.
On the same counts, the results for `O=S(=O)(/C=C/c1ccccc1)N1CCCC(c2ccc3ccccc3c2)=N1` [Compound 174] are 10000 and 22.8 nM.
